# Assay results published in publication PMC3830718 (Toxicology and applied pharmacology, 2013).
# Like-named read-outs stand apart in the source and are kept apart here.
# Experiments:
# [1] = molecular target: T1, mouse Oct2 (mOct2) (Mus musculus, UniProt O70577); experiment: Inhibition of metformin accumulation in HEK-293 cells stably expressing mOct2; type: cell-based
# T1 sequence (O70577 1-553): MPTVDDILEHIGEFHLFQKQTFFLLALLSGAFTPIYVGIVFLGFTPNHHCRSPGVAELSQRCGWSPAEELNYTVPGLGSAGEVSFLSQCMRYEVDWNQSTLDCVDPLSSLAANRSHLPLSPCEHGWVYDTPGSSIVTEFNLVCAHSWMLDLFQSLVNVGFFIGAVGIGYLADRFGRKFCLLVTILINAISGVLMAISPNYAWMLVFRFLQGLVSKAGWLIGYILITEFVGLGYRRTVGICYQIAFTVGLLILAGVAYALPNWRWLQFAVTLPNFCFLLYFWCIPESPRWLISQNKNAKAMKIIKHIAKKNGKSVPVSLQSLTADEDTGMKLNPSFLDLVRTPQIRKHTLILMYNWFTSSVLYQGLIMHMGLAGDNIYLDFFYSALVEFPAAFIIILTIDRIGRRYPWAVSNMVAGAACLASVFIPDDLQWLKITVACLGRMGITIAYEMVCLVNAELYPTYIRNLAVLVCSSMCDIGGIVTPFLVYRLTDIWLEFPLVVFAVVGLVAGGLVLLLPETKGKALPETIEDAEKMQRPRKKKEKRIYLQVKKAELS
# [2] = mouse, in vivo, 10 mg/kg
# [3] = molecular target: mouse Mate1 (mMate1) (Mus musculus, UniProt Q8K0H1); experiment: Inhibition of metformin accumulation in HEK-293 cells stably expressing mMate1; type: cell-based
# Sequence of mouse Mate1 (mMate1) (Q8K0H1 whole entry): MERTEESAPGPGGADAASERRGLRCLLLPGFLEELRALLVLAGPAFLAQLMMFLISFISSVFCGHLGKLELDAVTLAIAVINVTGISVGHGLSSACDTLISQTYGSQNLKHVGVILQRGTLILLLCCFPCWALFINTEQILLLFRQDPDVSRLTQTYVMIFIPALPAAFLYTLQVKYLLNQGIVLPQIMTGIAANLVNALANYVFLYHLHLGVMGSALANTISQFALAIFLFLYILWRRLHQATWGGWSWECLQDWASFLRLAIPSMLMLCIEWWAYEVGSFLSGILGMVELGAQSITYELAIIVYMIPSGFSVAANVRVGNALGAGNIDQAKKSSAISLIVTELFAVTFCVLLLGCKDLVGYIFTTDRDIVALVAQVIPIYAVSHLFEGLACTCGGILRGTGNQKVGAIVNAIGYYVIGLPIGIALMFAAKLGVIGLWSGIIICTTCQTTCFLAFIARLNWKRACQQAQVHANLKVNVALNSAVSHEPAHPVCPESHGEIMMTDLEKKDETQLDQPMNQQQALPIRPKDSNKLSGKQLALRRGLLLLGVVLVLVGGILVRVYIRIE
# [4] = type: in vivo, mice; conditions: mouse, kidney, intraperitoneal, 7.5 mg/kg, Metformin accumulation in the kidney
# [5] = in vivo; conditions: mouse, AUC0–120min of metformin
Ki [1],Effect on hepatic platinum accumulation [2],Ki [3],"concentration at 30 min ([4]; Mate1−/− mice, saline (Fig. 4A))","concentration at 30 min ([4]; wild-type mice, saline, genotype study (Fig. 4A))",AUC(0-t) [5],SMILES
3.5 µM,did not observe a significant effect,0.07 µM,,,,Cc1nccn1CC1CCc2c(c3ccccc3n2C)C1=O (stereo not drawn) [ondansetron]
,,,917 ± 89.6 ng/g,114 ± 21.8 ng/g,2030 ng·h/mL,CN(C)C(=N)N=C(N)N [metformin]
